Tests used:
[1] = biological target: T1, ALK-5 (Homo sapiens, UniProt P36897); experiment: Determination of the intracellular TGF-beta kinase activity (ALK-5), AlphaLISA SureFire p-SMAD3 in A549 cells; format: cell-based; conditions: A549 cell line, TGF-β2 activated, p-SMAD3(Ser423/425)
T1 construct: endogenous in cells; host or cells: A549
T1 sequence (P36897 34-503): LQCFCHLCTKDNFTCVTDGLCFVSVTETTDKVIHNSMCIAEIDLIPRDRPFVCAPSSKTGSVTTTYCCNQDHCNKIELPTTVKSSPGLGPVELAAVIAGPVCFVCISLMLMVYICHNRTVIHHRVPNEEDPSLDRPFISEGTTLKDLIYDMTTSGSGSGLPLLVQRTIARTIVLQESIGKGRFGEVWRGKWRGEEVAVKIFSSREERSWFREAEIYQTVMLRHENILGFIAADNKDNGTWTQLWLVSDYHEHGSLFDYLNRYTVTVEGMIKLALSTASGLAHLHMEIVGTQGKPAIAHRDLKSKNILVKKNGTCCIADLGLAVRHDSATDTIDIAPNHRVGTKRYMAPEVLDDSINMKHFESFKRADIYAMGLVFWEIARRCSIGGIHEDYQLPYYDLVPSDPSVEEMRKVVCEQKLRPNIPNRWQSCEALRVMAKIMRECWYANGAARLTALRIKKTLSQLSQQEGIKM
Experimental: Determination of the Intracellular TGF-Beta Kinase Activity (ALK-5)
The experiments were carried out in A549 cell line. 30000 cells were seeded in 200 μl of culture medium (Sigma D6046) supplemented with L-Glutamine (Sigma G7513), Penicillin/Streptomycin (Invitrogen 11058) and FBS (Sigma F9665) on a 96 wells microplate (Becton Dickinson 353072). After 16 hours medium was changed to serum free medium. Galunisertib, as inhibitor ligand (Cayman CAY-15312) and recombinant Human TGF-β2 (R&D Systems 302-B2-002) as activator of the ALK-5, were added in their corresponding wells and incubated following the instructions of the Alphascreen AlphaLISA@SureFire® Ultra™ p-SMAD3(Ser423/425) Kit (Perkin Elmer ALSU-PSM3-A500).

[2] = biological target: T2, Human TGFβR-1 (Homo sapiens, UniProt P36897); experiment: In vitro enzyme assay: inhibition of TGFβR-1 (ADP-Glo kinase assay); format: biochemical; conditions: TGFβR-1 kinase 50 ng/well, 50 μM ATP, 120 min RT
T2 construct: purchased Promega V4092
T2 sequence (P36897 34-503): T1 sequence (P36897 34-503)
Source text: In the present application are used the following abbreviations, with the corresponding definitions: • AcOH: Acetic Acid • ACVR2B: activin A receptor, type IIB • ALKn: activin receptor-like kinase n • ATP: adenosin triphosphate • Boc2O: tert-butyl dicarbonate • Boc: tert-Butoxycarbonyl • Clint: Intrinsic clearance • DIPEA: N,N-Diisopropylethylamine • DMA: Dimethylacetamide • DMAP: 4-Dimethylaminopyridine • DMF: N,N-Dimethylformamide • DMSO: Dimethyl sulfoxide • EDCl: N-(3-Dimethylaminopropyl)-N′-ethylcarbodiimide) • Et3N: Triethylamine • EtOAc: Ethyl acetate • EtOH: ethanol • FBS: Fetal bovine serum • H: hour • HATU: 1-[Bis(dimethylamino)methylene]-1H-1,2,3-triazolo[4,5-b]pyridinium 3-oxide hexafluorophosphate • HOBT: Hydroxybenzotriazole • HPLC: High-performance liquid chromatography • ^1H-NMR: Proton nuclear magnetic resonance • K2EDTA: ethylenediaminetetracetic acid dipotassium salt • LC: Liquid chromatography • LiHMDS: Lithium bis(trimethylsilyl)amide • LLOQ: lower limit of quantification • MeCN: Acetonitrile • MeOH: Methanol • Min: minutes • MS: Mass spectroscopy • MTBE: Methyl tert-butyl ether • NBS: N-Bromosuccinimide • NaCMC: Sodium carboxymethyl cellulose • Rt: retention time • RT: room temperature • Sem: 2-(Trimethylsilyl)ethoxymethyl • TGFβ: transforming growth factor-β • THF: Tetrahydrofuran • THF:EtOH: Tetrahydrofuran:ethanol • UPLC: ultra high-performance liquid chromatography • UV: Ultraviolet Pharmacological Activity In Vitro Enzyme Assay: Inhibition of TGFβR-1 Human TGFβR-1 inhibition experiments were carried out in a white 384-microplate low flange (Corning 3572) with ADP-Glo kinase Assay Kit (Promega V9101) and TGFβR-1 Kinase Enzyme System (Promega V4092). Test compounds and standard Galunisertib (Cayman 15312), 50 ng/well TGFβR-1 kinase and 50 μM ATP were added in a final volume of 10 μL/well, using Reaction buffer supplied by kit as assay buffer. The reaction mixture was incubated in gentle shaking for 120 min at RT, after incubation of 10 μL of ADP-Glo Reagent was added and incubated in gentle shaking for 40 min at RT. 20 μL of Kinase Detection Reagent was added and plate was incubated in gentle shaking for 30 min at RT. Luminescence (1000 ms) was measured in Perkin Elmer EnSpire Multimode plate reader. Results

[3] = Determination of plasma stability in human plasma; format: in vitro ADME; conditions: 10 μM, 37° C.
Experimental: Determination of Plasma Stability of Some Compounds
Human plasma pooled from healthy donors extracted in citrate tubes was employed in the assay. Briefly, plates containing 10 μM compounds in plasma (total volume: 50 μL) were incubated at 37° C. at the different times (0, 30, 120 and 360 min). Then 100 μl Acetonitrile were added for precipitating plasma protein, and the plate was centrifuged at 46000 g for 60 min at 5° C. Supernatant was taken and analysed by UPLC/MS/MS for sample quantification. Stationary phase: Reverse phase Acquity UPLC® BEH C18 1.7 μm (2.1 mm×50 mm) (Waters). Mobile phase: 0.1% Formic acid water/0.1% formic acid in acetonitrile.
Flow: 0.6 ml/min. The chromatographic equipment employed was an UPL QSM Waters Acquity. Compound concentrations were calculated from the MS peak areas.

Row | Compound | IC50 [1] [nM] | IC50 [2] [nM] | remaining percentage 0 min [3] [%] | remaining percentage 30 min [3] [%] | remaining percentage 120 min [3] [%] | remaining percentage 360 min [3] [%]
1 | Cc1cccc(-c2nn(CC(=O)Nc3cc(F)cc(C(=O)OCCN(C)C)c3)cc2-c2ccnc3ccccc23)n1 [Example 1, 2-(dimethylamino)ethyl 3-fluoro-5-(2-(3-(6-methylpyridin-2-yl)-4-(quinolin-4-yl)-1H-pyrazol-1-yl)acetamido)benzoate] | < 1000 | < 100 | 100 | 0 | 0 | 0
2 | Cc1cccc(-c2nn(CC(=O)Nc3ccc(C(=O)OCCN(C)C)nc3)cc2-c2ccnc3ccccc23)n1 [Example 5, 2-(dimethylamino)ethyl 5-(2-(3-(6-methylpyridin-2-yl)-4-(quinolin-4-yl)-1H-pyrazol-1-yl)acetamido)picolinate] | > 1000 | < 100 | 100 | 10 | 0 | 0
3 | CCN(CC)CCOC(=O)c1cc(F)cc(NC(=O)Cn2cc(-c3ccnc4ccccc34)c(-c3cccc(C)n3)n2)c1 [Example 7, 2-(diethylamino)ethyl 3-fluoro-5-(2-(3-(6-methylpyridin-2-yl)-4-(quinolin-4-yl)-1H-pyrazol-1-yl)acetamido)benzoate] | < 1000 | 100 to 250 | 100 | 16.0 | 3.3 | 0.1
4 | Cc1cccc(-c2nn(CC(=O)Nc3cc(F)cc(C(=O)OCC4CCN(C)CC4)c3)cc2-c2ccnc3ccccc23)n1 [Example 9, (1-methylpiperidin-4-yl)methyl 3-fluoro-5-(2-(3-(6-methylpyridin-2-yl)-4-(quinolin-4-yl)-1H-pyrazol-1-yl)acetamido)benzoate] | < 1000 | < 100 | 100 | 16.6 | 3.1 | 0
5 | CNCCOC(=O)c1cc(F)cc(NC(=O)Cn2cc(-c3ccnc4ccccc34)c(-c3cccc(C)n3)n2)c1 [Example 15, 2-(methylamino)ethyl 3-fluoro-5-(2-(3-(6-methylpyridin-2-yl)-4-(quinolin-4-yl)-1H-pyrazol-1-yl)acetamido)benzoate] | > 1000 | < 100 | – | – | – | –
6 | Cc1cccc(-c2nn(CC(=O)Nc3cc(F)cc(C(=O)OCCN4CCNCC4)c3)cc2-c2ccnc3ccccc23)n1 [Example 19, 2-(piperazin-1-yl)ethyl 3-fluoro-5-(2-(3-(6-methylpyridin-2-yl)-4-(quinolin-4-yl)-1H-pyrazol-1-yl)acetamido)benzoate] | < 1000 | < 100 | 100 | 1.9 | 0.3 | 0
7 | Cc1cccc(-c2nn(CC(=O)Nc3cc(F)cc(C(=O)OC4CCNCC4)c3)cc2-c2ccnc3ccccc23)n1 [Example 21, piperidin-4-yl 3-fluoro-5-(2-(3-(6-methylpyridin-2-yl)-4-(quinolin-4-yl)-1H-pyrazol-1-yl)acetamido)benzoate] | > 1000 | < 100 | 100 | 74.3 | 34.2 | 6.3

Reference: patent US12577230B2, “2-(3-pyridin-2-yl-4-quinolin-4-yl-pyrazol-1-yl)- acetamide derivatives as inhibitors of transforming growth factor-beta receptor I/ALK5” (AGOMAB SPAIN S.L.U., priority 2020, dated 2026)
